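Growth conditions: 96-well plates. Treatment: test compound, 48 hours, 5 concentrations. Analysis: linear interpolation between bracketing concentrations; unreached endpoints set to highest concentration. GI50 = concentration required for 50% inhibition of growth.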 Activity calls are given as the source filed them. Rule as the data show it: active = GI50 up to about 1.1 µM and inactive = higher. Where a SMILES comes first, the peptide text is derived from it. The star is where a group is joined. Boc = CC(C)(C)OC(=O)*; Bn = c1ccc(C*)cc1
Columns and labels:
Assay in all cases: growth of human tumour cells (NCI), 48 h
[1] = test system: A498
[2] = test system: ACHN
[3] = test system: HCT-15
[4] = test system: HL-60
[5] = test system: IGROV-1
[6] = test system: LOX IMVI
[7] = test system: M14
[8] = test system: MCF7
[9] = test system: MDA-MB-231
[10] = test system: MOLT-4
[11] = test system: Malme-3M
[12] = test system: OVCAR-4
[13] = test system: OVCAR-5
[14] = test system: RXF 393
[15] = test system: SF-539
[16] = test system: SK-MEL-2
[17] = test system: SK-MEL-5
[18] = test system: U-251
[19] = test system: UO-31
[20] = test system: HCC 2998

SMILES | GI50 [1] | GI50 [2] | GI50 [3] [µM] | GI50 [4] | GI50 [5] | GI50 [6] | GI50 [7] | GI50 [8] | GI50 [9] | GI50 [10] | GI50 [11] | GI50 [12] | GI50 [13] | GI50 [14] | GI50 [15] | GI50 [16] | GI50 [17] | GI50 [18] | GI50 [19] | GI50 [20]
CC1(C)OCC(C2OC(C)(C)OC2[C@H]2O[C@@]3(O)[C@H]4[C@H](C=CC[C@@H]42)[C@@H](OCc2ccccc2)[C@H](OCc2ccccc2)[C@H]3OCc2ccccc2)O1 (some centres undefined) | > 100 µM (inactive) | > 100 µM (inactive) | 21.9 | 14.4 µM (inactive) | 71 µM (inactive) | 22.6 µM (inactive) | 59.3 µM (inactive) | 15.2 µM (inactive) | 94.8 µM (inactive) | 12.5 µM (inactive) | > 100 µM (inactive) | 41 µM (inactive) | 54.3 µM (inactive) | 16.5 µM (inactive) | 27.2 µM (inactive) | 20.7 µM (inactive) | 43.2 µM (inactive) | 53.6 µM (inactive) | 31 µM (inactive) | 
COc1c(C)c(C/C=C(\C)CC/C=C(\C)CC/C=C(\C)CCC=C(C)C)c(OC)c2ccccc12 |  | > 100 µM (inactive) | > 100 |  | 37.2 µM (inactive) | 70 µM (inactive) | > 100 µM (inactive) | > 100 µM (inactive) | > 100 µM (inactive) | > 100 µM (inactive) |  | > 100 µM (inactive) | > 100 µM (inactive) | > 100 µM (inactive) | > 100 µM (inactive) | > 100 µM (inactive) | > 100 µM (inactive) | > 100 µM (inactive) | > 100 µM (inactive) | 
Cc1ccc(S(=O)(=O)NC(=O)Nc2c(S(N)(=O)=O)cc(S(N)(=O)=O)c(Cl)c2Cl)cc1 | > 100 µM (inactive) | > 100 µM (inactive) | > 100 | > 100 µM (inactive) | > 100 µM (inactive) | > 100 µM (inactive) | > 100 µM (inactive) | > 100 µM (inactive) | > 100 µM (inactive) | > 100 µM (inactive) | > 100 µM (inactive) | > 100 µM (inactive) | > 100 µM (inactive) |  | > 100 µM (inactive) | > 100 µM (inactive) | > 100 µM (inactive) | > 100 µM (inactive) | > 100 µM (inactive) | > 100 µM (inactive)
COC(=O)C(CC(C)C)NC(=O)CNC(=O)C(Cc1ccc(OCc2ccccc2)cc1)NC(=O)C(COCc1ccccc1)NC(=O)OC(C)(C)C (centres undefined) (Boc-S(Bn)Y(Bn)GL-OMe; configuration not given here) |  | > 100 µM (inactive) |  | 4.56 µM (inactive) | > 100 µM (inactive) | 58.5 µM (inactive) | > 100 µM (inactive) | > 100 µM (inactive) | > 100 µM (inactive) | > 100 µM (inactive) | > 100 µM (inactive) | > 100 µM (inactive) | > 100 µM (inactive) | > 100 µM (inactive) | > 100 µM (inactive) |  | > 100 µM (inactive) | > 100 µM (inactive) | > 100 µM (inactive) | 
COC(=O)C1C(OC(=O)C(Cl)(c2ccccc2)c2ccccc2)CC2CCC1N2C (centres undefined) |  | > 100 µM (inactive) | > 100 | > 100 µM (inactive) | > 100 µM (inactive) | > 100 µM (inactive) | 45.1 µM (inactive) | > 100 µM (inactive) | > 100 µM (inactive) | > 100 µM (inactive) | > 100 µM (inactive) |  | > 100 µM (inactive) | > 100 µM (inactive) | > 100 µM (inactive) |  | > 100 µM (inactive) | > 100 µM (inactive) | > 100 µM (inactive) | > 100 µM (inactive)
COc1cc(C2SCC(=O)N2Cc2ccccc2)cc(OC)c1OC (centres undefined) |  | > 100 µM (inactive) | > 100 | > 100 µM (inactive) | 84.3 µM (inactive) | > 100 µM (inactive) | > 100 µM (inactive) | > 100 µM (inactive) | > 100 µM (inactive) | > 100 µM (inactive) |  | > 100 µM (inactive) | > 100 µM (inactive) |  | > 100 µM (inactive) | > 100 µM (inactive) | > 100 µM (inactive) | > 100 µM (inactive) | > 100 µM (inactive) | > 100 µM (inactive)
Cn1c(N/N=C/c2ccc(Cl)cc2)nc(-c2ccc(Cl)cc2)c(C#N)c1=O | 32.1 µM (inactive) | 61.5 µM (inactive) | 31.1 | 44.7 µM (inactive) | 6.73 µM (inactive) | 25.2 µM (inactive) | 20 µM (inactive) | 21.1 µM (inactive) | 22.4 µM (inactive) | 44.7 µM (inactive) | 24.2 µM (inactive) | 23.8 µM (inactive) | 23.8 µM (inactive) | 22.8 µM (inactive) | 21.8 µM (inactive) | 10.5 µM (inactive) | 45.1 µM (inactive) | 29.9 µM (inactive) | 16 µM (inactive) | 
CC(=O)NC1=C(NCCCl)C(=O)c2ccccc2C1=O |  | 42.8 µM (inactive) | 32.1 | > 10 µM (inactive) | 39.8 µM (inactive) |  | 13 µM (inactive) | 35.2 µM (inactive) | 36.7 µM (inactive) | 25.1 µM (inactive) | 13.9 µM (inactive) | 44.6 µM (inactive) | 81.8 µM (inactive) | 30 µM (inactive) | 40.8 µM (inactive) |  | 16.9 µM (inactive) | 39.1 µM (inactive) |  | 32.7 µM (inactive)
CCCCCCCCCCCCCCCCP(=O)(O)OCC(N)C(=O)O (centres undefined) | 23.6 µM (inactive) | 22.3 µM (inactive) | 31.3 | 18.7 µM (inactive) | 14.1 µM (inactive) | 17.1 µM (inactive) | 50.2 µM (inactive) |  | 32.1 µM (inactive) | 17.3 µM (inactive) | > 100 µM (inactive) | 37.9 µM (inactive) | 21.1 µM (inactive) | 33.7 µM (inactive) | 26.6 µM (inactive) | 26.4 µM (inactive) | 33 µM (inactive) | 29.8 µM (inactive) | 16 µM (inactive) | 40.5 µM (inactive)
CCCCCc1c2nc(c(CCCCC)c3ccc([nH]3)c(CCCCC)c3nc(c(CCCCC)c4ccc1[nH]4)C=C3)C=C2 |  | > 100 µM (inactive) | > 100 | > 100 µM (inactive) | > 100 µM (inactive) | > 100 µM (inactive) | > 100 µM (inactive) | > 100 µM (inactive) | > 100 µM (inactive) | > 100 µM (inactive) | > 100 µM (inactive) | > 100 µM (inactive) | > 100 µM (inactive) |  | > 100 µM (inactive) | > 100 µM (inactive) | > 100 µM (inactive) | > 100 µM (inactive) | > 100 µM (inactive) | > 100 µM (inactive)
CC1=C[C@H](C[C@]2(C)c3c(c4c(C)cccc4oc3=O)O[C@@H]2C)OC1=O | > 100 µM (inactive) | > 100 µM (inactive) | 18.3 | 22.5 µM (inactive) | > 100 µM (inactive) | 34.3 µM (inactive) | 66.1 µM (inactive) | 52.6 µM (inactive) | 40.2 µM (inactive) | 21.1 µM (inactive) | 29.9 µM (inactive) |  | > 100 µM (inactive) |  | > 100 µM (inactive) | > 100 µM (inactive) | > 100 µM (inactive) | > 100 µM (inactive) | 32.5 µM (inactive) | > 100 µM (inactive)
O=C(O)c1nc2cc(C(F)(F)F)ccc2nc1Nc1ccc(F)cc1 | 14.3 µM (inactive) | 12.3 µM (inactive) |  |  | 18.7 µM (inactive) | 18.7 µM (inactive) | 27 µM (inactive) | 22.2 µM (inactive) | 22.9 µM (inactive) | 13.6 µM (inactive) | 12.4 µM (inactive) |  | 35.1 µM (inactive) | 16.3 µM (inactive) | 17.5 µM (inactive) | 7.16 µM (inactive) | 16.2 µM (inactive) | 18.3 µM (inactive) | 15.8 µM (inactive) | 
CCOC(=O)CCCn1cc(C(=O)OC)nn1 |  | > 100 µM (inactive) | > 100 |  | > 100 µM (inactive) | > 100 µM (inactive) |  | > 100 µM (inactive) | > 100 µM (inactive) | > 100 µM (inactive) | > 100 µM (inactive) | > 100 µM (inactive) |  | > 100 µM (inactive) | > 100 µM (inactive) | > 100 µM (inactive) | > 100 µM (inactive) | > 100 µM (inactive) | > 100 µM (inactive) | > 100 µM (inactive)
C(/c1ccco1)=c1/nc(-c2ccccc2)n2c1nc1ccccc12 | > 100 µM (inactive) | 21.9 µM (inactive) | 97.3 | > 100 µM (inactive) | 11.3 µM (inactive) | 42.4 µM (inactive) | 22.6 µM (inactive) | 42.6 µM (inactive) | 16.5 µM (inactive) | 10.3 µM (inactive) | 16.4 µM (inactive) | 20.5 µM (inactive) | 69.8 µM (inactive) | 20.2 µM (inactive) | 24.3 µM (inactive) | 28.2 µM (inactive) | 20.6 µM (inactive) | 40.6 µM (inactive) | 67 µM (inactive) | 
O=C(C(=O)N1CCc2ccccc21)c1c[nH]c2ccccc12 |  | > 10 µM (inactive) | > 10 | > 10 µM (inactive) | > 10 µM (inactive) | > 10 µM (inactive) | > 10 µM (inactive) | > 10 µM (inactive) | > 10 µM (inactive) | > 10 µM (inactive) | > 10 µM (inactive) | > 10 µM (inactive) | > 10 µM (inactive) | > 10 µM (inactive) | > 10 µM (inactive) | > 10 µM (inactive) | > 10 µM (inactive) | > 10 µM (inactive) | > 10 µM (inactive) | > 10 µM (inactive)

Reference: ChEMBL document CHEMBL1201862, “PubChem BioAssay data set” (2004)
